Measurements as given in US20260092061A1, “COMPOUNDS FOR TARGETED PROTEIN DEGRADATION” (Amphista Therapeutics Limited, priority 2022, published 2026).

Legend:
BRD9 [1] = molecular target: T1, BRD9 (Homo sapiens, UniProt Q9H8M2); assay: Degradation of BRD9 (IF), immunofluorescence in MV4-11 cells, 24 hours (Assay Protocol 2); type: cell-based; design: A suspension of MV4-11 cells (ATCC CRL-9591) was prepared; host or cells: MV4-11; conditions: BRD9 degradation; for DC50: Assay protocol 2, read-out: DC50; for Dmax: MV4-11, Assay protocol 2, read-out: Dmax
T1 sequence (Q9H8M2 1-597): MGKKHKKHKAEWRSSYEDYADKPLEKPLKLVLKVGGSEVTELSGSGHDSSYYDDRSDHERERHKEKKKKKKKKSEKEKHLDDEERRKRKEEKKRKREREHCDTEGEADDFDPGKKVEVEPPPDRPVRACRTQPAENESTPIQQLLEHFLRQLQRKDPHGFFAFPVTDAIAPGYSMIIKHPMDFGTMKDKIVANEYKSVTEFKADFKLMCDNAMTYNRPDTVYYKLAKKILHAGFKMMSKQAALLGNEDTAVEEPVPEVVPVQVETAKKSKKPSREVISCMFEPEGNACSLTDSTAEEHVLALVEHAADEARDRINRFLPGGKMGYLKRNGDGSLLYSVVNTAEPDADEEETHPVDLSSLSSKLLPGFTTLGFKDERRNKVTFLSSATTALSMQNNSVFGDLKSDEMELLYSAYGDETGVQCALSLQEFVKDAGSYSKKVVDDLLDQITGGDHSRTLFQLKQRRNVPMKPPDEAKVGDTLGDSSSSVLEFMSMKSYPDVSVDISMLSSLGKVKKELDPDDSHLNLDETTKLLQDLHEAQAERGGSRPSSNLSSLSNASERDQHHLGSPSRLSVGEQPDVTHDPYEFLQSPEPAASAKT
Procedure, shortened: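 % BRD9 remaining, scaled between DMSO (high) and 100 nM CFT-8634 (low) control wells, derives from mean Alexa 647 contrast in central nuclei by high-content imaging. MV4-11 cells had 24 h compound exposure at 37° C. before PFA fixation, Triton permeabilisation and anti-BRD9 E4Q3F immunostaining.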

BRD9 [2] = molecular target: T1, BRD9; assay: BRD9 degradation, HiBiT-BRD9 KI HEK293 (LgBiT) cells, NanoGlo Lytic Endpoint assay (Assay Protocol 1); type: cell-based; conditions: Assay protocol 1, BRD9 degradation; for DC50: read-out: DC50; for Dmax: HEK293, read-out: Dmax
Procedure, shortened: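 HiBiT-tagged BRD9 knock-in HEK293 (LgBiT) cells exposed to compounds for 6 h at 37 °C, 5% CO2. Residual BRD9 measured by HiBiT lytic luminescence. % BRD9 remaining normalised to DMSO-treated cells (high) and no-cell wells (low).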

DC50 (BRD9 [1]) [nM]	Dmax (BRD9 [1]) [%]	DC50 (BRD9 [2]) [nM]	Dmax (BRD9 [2]) [%]	Structure (SMILES)
10 to 25	40 to 70	25 to 1000	> 75	COc1cc(-c2cn(C)c(=O)c(C)c2C)cc(OC)c1CN1CCC2(CC1)CCN(c1cccc3c1CCN(C(=O)/C(C#N)=C/C(C)(C)C)C3C)CC2 (mixture of isomers) [Compound B39, (E/Z)-2-(5-(9-(2,6-dimethoxy-4-(1,4,5-trimethyl-6-oxo-1,6-dihydropyridin-3-yl)benzyl)-3,9-diazaspiro[5.5]undecan-3-yl)-1-methyl-1,2,3,4-tetrahydroisoquinoline-2-carbonyl)-4,4-dimethylpent-2-enenitrile]
< 1.25	40 to 70	< 1.25	40 to 70	COc1cc(-c2cn(C)c(=O)c(C)c2C)cc(OC)c1CN1CCC2(C1)CN(c1cccc3c1CCN(C(=O)/C(C#N)=C/C(C)(C)C)C3C)C2 (mixture of isomers) [Compound B40, (E/Z)-2-(5-(6-(2,6-dimethoxy-4-(1,4,5-trimethyl-6-oxo-1,6-dihydropyridin-3-yl)benzyl)-2,6-diazaspiro[3.4]octan-2-yl)-1-methyl-1,2,3,4-tetrahydroisoquinoline-2-carbonyl)-4,4-dimethylpent-2-enenitrile]
10 to 25	> 75	1.25 to 10	> 75	COc1cc(-c2cn(C)c(=O)c(C)c2C)cc(OC)c1CN1CCN(c2cccc(C3CCCN3C(=O)/C(C#N)=C/C(C)(C)C)c2)CC1 (mixture of isomers) [Compound B41, (E/Z)-2-(2-(3-(4-(2,6-dimethoxy-4-(1,4,5-trimethyl-4-oxo-1,6-dihydropyridin-3-yl)benzyl)piperazin-1-yl)phenyl)pyrrolidine-1carbonyl)-4,4-dimethylpent-2-enenitrile]
	40 to 70	10 to 25	40 to 70	COc1cc(-c2cn(C)c(=O)c(C)c2C)cc(OC)c1CN1CCN(c2ccc(C3CCCN3C(=O)/C(C#N)=C/C(C)(C)C)cc2)CC1 (mixture of isomers) [Compound B42, (E/Z)-2-(2-(4-(4-(2,6-dimethoxy-4-(1,4,5-trimethyl-6-oxo-1,6-dihydropyridin-3-yl)benzyl)piperazin-1-yl)phenyl)pyrrolidine-1-carbonyl)-4,4-dimethylpent-2-enenitrile]
< 1.25	40 to 70	< 1.25	> 75	COc1cc(-c2cn(C)c(=O)c(C)c2C)cc(OC)c1CN1CCC(Oc2cccc3c2CCN(C(=O)/C(C#N)=C/C(C)(C)C)C3C)CC1 (mixture of isomers) [Compound B44, (E/Z)-2-(5-((1-(2,6-dimethoxy-4-(1,4,5-trimethyl-6-oxo-1,6-dihydropyridin-3-yl)benzyl)piperidin-4-yl)oxy)-1-methyl-1,2,3,4-tetrahydroisoquinoline-2-carbonyl)-4,4-dimethylpent-2-enenitrile]
< 1.25	> 75	< 1.25	> 75	COc1cc(-c2cn(C)c(=O)c(C)c2C)cc(OC)c1CN1CCN(Cc2cccc3c2CCN(C(=O)/C(C#N)=C/C24CC(C2)C4)C3C)CC1 (mixture of isomers) [Compound B45, (E/Z)-3-(bicyclo[1.1.1]pentan-1-yl)-2-(5-((4-(2,6-dimethoxy-4-(1,4,5-trimethyl-6-oxo-1,6-dihydropyridin-3-yl)benzyl)piperazin-1-yl)methyl)-1-methyl-1,2,3,4-tetrahydroisoquinoline-2-carbonyl)acrylonitrile]
1.25 to 10	> 75	10 to 25	> 75	COc1cc(-c2cn(C)c(=O)c(C)c2C)cc(OC)c1C(=O)N1CCN(Cc2cccc(C3CCCN3C(=O)/C(C#N)=C/C(C)(C)C)c2)CC1 (mixture of isomers) [Compound B46, (E/Z)-2-(2-(3-((4-(2,6-dimethoxy-4-(1,4,5-trimethyl-6-oxo-1,6-dihydropyridin-3-yl)benzoyl)piperazin-1-yl)methyl)phenyl)pyrrolidine-1-carbonyl)-4,4-dimethylpent-2-enenitrile]
< 1.25	> 75	< 1.25	> 75	COc1cc(-c2cn(C)c(=O)c(C)c2C)cc(OC)c1CN1CCN(Cc2cccc3c2CCN(C(=O)/C(C#N)=C/C(C)(C)C)C3C)C2(CC2)C1 (mixture of isomers) [Compound B47, (E/Z)-2-(5-((7-(2,6-dimethoxy-4-(1,4,5-trimethyl-6-oxo-1,6-dihydropyridin-3-yl)benzyl)-4,7-diazaspiro[2.5]octan-4-yl)methyl)-1-methyl-1,2,3,4-tetrahydroisoquinoline-2-carbonyl)-4,4-dimethylpent-2-enenitrile]
10 to 25	40 to 70	< 1.25	40 to 70	COc1cc(-c2cn(C)c(=O)c(C)c2C)cc(OC)c1CN1CCN(Cc2cccc3c2CCN(C(=O)/C(C#N)=C/c2ncccc2C(F)(F)F)C3C)CC1 (mixture of isomers) [Compound B49, (E/Z)-2-(5-((4-(2,6-dimethoxy-4-(1,4,5-trimethyl-6-oxo-1,6-dihydropyridin-3-yl)benzyl)piperazin-1-yl)methyl)-1-methyl-1,2,3,4-tetrahydroisoquinoline-2-carbonyl)-3-(3-(trifluoromethyl)pyridin-2-yl)acrylonitrile]
10 to 25	> 75	< 1.25	70 to 75	COc1cc(-c2cn(C)c(=O)c(C)c2C)cc(OC)c1CN1CCN(Cc2cccc3c2CCN(C(=O)/C(C#N)=C/c2cc(C(F)(F)F)ccn2)C3C)CC1 (mixture of isomers) [Compound B50, (E/Z)-2-(5-((4-(2,6-dimethoxy-4-(1,4,5-trimethyl-6-oxo-1,6-dihydropyridin-3-yl)benzyl)piperazin-1-yl)methyl)-1-methyl-1,2,3,4-tetrahydroisoquinoline-2-carbonyl)-3-(4-(trifluoromethyl)pyridin-2-yl)acrylonitrile]
	25 to 40	1.25 to 10	40 to 70	COc1cccnc1/C=C(\C#N)C(=O)N1CCc2c(CN3CCN(Cc4c(OC)cc(-c5cn(C)c(=O)c(C)c5C)cc4OC)CC3)cccc2C1C (mixture of isomers) [Compound B51, (E/Z)-2-(5-((4-(2,6-dimethoxy-4-(1,4,5-trimethyl-6-oxo-1,6-dihydropyridin-3-yl)benzyl)piperazin-1-yl)methyl)-1-methyl-1,2,3,4-tetrahydroisoquinoline-2-carbonyl)-3-(3-methoxypyridin-2-yl)acrylonitrile]
25 to 1000	40 to 70	< 1.25	70 to 75	COc1ccnc(/C=C(\C#N)C(=O)N2CCc3c(CN4CCN(Cc5c(OC)cc(-c6cn(C)c(=O)c(C)c6C)cc5OC)CC4)cccc3C2C)c1 (mixture of isomers) [Compound B52, (E/Z)-2-(5-((4-(2,6-dimethoxy-4-(1,4,5-trimethyl-6-oxo-1,6-dihydropyridin-3-yl)benzyl)piperazin-1-yl)methyl)-1-methyl-1,2,3,4-tetrahydroisoquinoline-2-carbonyl)-3-(4-methoxypyridin-2-yl)acrylonitrile]
	40 to 70	1.25 to 10	40 to 70	COc1ccc(/C=C(\C#N)C(=O)N2CCc3c(CN4CCN(Cc5c(OC)cc(-c6cn(C)c(=O)c(C)c6C)cc5OC)CC4)cccc3C2C)nc1 (mixture of isomers) [Compound B53, (E/Z)-2-(5-((4-(2,6-dimethoxy-4-(1,4,5-trimethyl-6-oxo-1,6-dihydropyridin-3-yl)benzyl)piperazin-1-yl)methyl)-1-methyl-1,2,3,4-tetrahydroisoquinoline-2-carbonyl)-3-(5-methoxypyridin-2-yl)acrylonitrile]
< 1.25	70 to 75	< 1.25	> 75	COc1cc(-c2cn(C)c(=O)c(C)c2C)cc(OC)c1CN1CCC(Oc2cccc(C3CCCN3C(=O)/C(C#N)=C/C(C)(C)C)c2)C1 (mixture of isomers) [Compound B54, (E/Z)-2-(2-(3-(((S)-1-(2,6-dimethoxy-4-(1,4,5-trimethyl-6-oxo-1,6-dihydropyridin-3-yl)benzyl)pyrrolidin-3-yl)oxy)phenyl)pyrrolidine-1-carbonyl)-4,4-dimethylpent-2-enenitrile]
